Assay results: patent US20070117770A1, “Human ribosomal DNA (rDNA) and ribosomal RNA (rRNA) nucleic acids and uses thereof” (Cylene Pharmaceuticals, Inc., priority 2005, published 2007)
Several values for one entry are separate records, joined by “and”; a condition that tells them apart may be missing. Identical values can stand only once. Like-named read-outs stand apart in the source and are kept apart here.

Key:
Test in all cases: Protein kinase inhibition assay
Type in all cases: biochemical
[1] = molecular target: CDK2/cyclinE(h) (Homo sapiens, UniProt P24941); settings: read-out: percent residual activity of CDK2/cyclinE(h)
Description: (§1) Certain compounds were tested for activity in protein kinase inhibition assays. All substrates were dissolved and diluted to working stocks in de-ionized water, apart from histone H1 (10× working stock in 20 mM MOPS pH 7.0), PDKtide (10× working stock in 50 mM Tris pH 7.0) ATF2 (which is typically stored at a 20× working stock in 50 mM Tris pH 7.5, 150 mM NaCl, 0.1 mM EGTA, 0.03% Brij-35, 50% glycerol, 1 mM benzamidine, 0.2 mM PMSF and 0.1% R-mercaptoethanol), KKLNRTLSFAEPG (SEQ ID NO:203) and RRRLSFAEPG (SEQ ID NO:204) (50 mM HEPES pH 7.4) and GGEEEEYFELVKKKK (SEQ ID NO:205) (20 mM MOPS pH 7.0). All kinases were pre-diluted to a 10× working concentration prior to addition into the assay. The composition of the dilution buffer for each kinase is detailed below.
(§2) In a final reaction volume of 25 μl, CDK2/cyclinE (h) (5-10 mU) is incubated with 8 mM MOPS pH 7.0, 0.2 mM EDTA, 0.1 mg/ml histone H1, 10 mM MgAcetate and [gamma-33P-ATP] (specific activity approx. 500 cpm/pmol, concentration as required). The reaction is initiated by the addition of the MgATP mix. After incubation for 40 minutes at room temperature, the reaction is stopped by the addition of 5 μl of a 3% phosphoric acid solution. 10 μl of the reaction is then spotted onto a P30 filtermat and washed three times for 5 minutes in 75 mM phosphoric acid and once in methanol prior to drying and scintillation counting.

[2] = molecular target: Pyk2(h) (Homo sapiens, UniProt Q14289); settings: read-out: percent residual activity of Pyk2(h)
Pyk2(h), sequence (Q14289 whole entry): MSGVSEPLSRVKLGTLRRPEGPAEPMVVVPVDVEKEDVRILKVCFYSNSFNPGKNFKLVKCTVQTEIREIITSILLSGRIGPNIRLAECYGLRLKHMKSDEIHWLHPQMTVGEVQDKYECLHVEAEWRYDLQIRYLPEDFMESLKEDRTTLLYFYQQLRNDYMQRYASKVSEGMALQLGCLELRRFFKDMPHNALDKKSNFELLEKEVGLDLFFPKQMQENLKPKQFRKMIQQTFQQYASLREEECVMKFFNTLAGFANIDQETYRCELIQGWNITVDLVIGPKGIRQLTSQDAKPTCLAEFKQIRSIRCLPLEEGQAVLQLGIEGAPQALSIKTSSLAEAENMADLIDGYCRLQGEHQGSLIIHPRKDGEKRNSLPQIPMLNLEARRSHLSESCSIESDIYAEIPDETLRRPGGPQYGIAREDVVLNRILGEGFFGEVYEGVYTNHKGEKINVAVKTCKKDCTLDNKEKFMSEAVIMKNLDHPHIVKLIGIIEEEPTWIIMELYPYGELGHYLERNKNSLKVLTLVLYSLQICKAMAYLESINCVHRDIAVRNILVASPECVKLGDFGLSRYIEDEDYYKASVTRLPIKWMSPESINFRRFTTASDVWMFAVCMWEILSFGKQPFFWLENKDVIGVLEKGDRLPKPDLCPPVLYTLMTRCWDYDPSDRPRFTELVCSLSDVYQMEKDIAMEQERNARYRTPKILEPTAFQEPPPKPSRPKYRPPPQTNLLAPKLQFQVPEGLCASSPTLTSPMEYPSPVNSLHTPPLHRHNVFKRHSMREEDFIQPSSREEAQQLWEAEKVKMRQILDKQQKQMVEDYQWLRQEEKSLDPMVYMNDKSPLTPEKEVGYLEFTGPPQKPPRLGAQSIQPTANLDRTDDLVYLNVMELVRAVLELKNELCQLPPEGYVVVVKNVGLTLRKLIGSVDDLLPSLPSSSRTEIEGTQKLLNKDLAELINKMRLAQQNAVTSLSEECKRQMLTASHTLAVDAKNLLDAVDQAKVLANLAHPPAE
Description: as §1
as §2, with “Pyk2” for “CDK2/cyclinE”, “poly(Glu, Tyr) 4:1,” for “histone H1,”, “Filtermat A” for “P30 filtermat”

[3] = molecular target: ALK(h) (Homo sapiens, UniProt Q9UM73); settings: read-out: percent residual activity of ALK(h)
Description: as §1
as §2, with “ALK” for “CDK2/cyclinE”, “250 μM KKKSPGEYVNIEFG (SEQ ID NO:207),” for “0.1 mg/ml histone H1,”, “[y -33P-ATP]” for “[gamma-33P-ATP]”

[4] = molecular target: Abl(h) (Homo sapiens, UniProt P00519); settings: for Mean (Counts - Blanks) / Activity (% Control) / Counts: 2.5 μM
Abl(h), sequence (P00519 whole entry): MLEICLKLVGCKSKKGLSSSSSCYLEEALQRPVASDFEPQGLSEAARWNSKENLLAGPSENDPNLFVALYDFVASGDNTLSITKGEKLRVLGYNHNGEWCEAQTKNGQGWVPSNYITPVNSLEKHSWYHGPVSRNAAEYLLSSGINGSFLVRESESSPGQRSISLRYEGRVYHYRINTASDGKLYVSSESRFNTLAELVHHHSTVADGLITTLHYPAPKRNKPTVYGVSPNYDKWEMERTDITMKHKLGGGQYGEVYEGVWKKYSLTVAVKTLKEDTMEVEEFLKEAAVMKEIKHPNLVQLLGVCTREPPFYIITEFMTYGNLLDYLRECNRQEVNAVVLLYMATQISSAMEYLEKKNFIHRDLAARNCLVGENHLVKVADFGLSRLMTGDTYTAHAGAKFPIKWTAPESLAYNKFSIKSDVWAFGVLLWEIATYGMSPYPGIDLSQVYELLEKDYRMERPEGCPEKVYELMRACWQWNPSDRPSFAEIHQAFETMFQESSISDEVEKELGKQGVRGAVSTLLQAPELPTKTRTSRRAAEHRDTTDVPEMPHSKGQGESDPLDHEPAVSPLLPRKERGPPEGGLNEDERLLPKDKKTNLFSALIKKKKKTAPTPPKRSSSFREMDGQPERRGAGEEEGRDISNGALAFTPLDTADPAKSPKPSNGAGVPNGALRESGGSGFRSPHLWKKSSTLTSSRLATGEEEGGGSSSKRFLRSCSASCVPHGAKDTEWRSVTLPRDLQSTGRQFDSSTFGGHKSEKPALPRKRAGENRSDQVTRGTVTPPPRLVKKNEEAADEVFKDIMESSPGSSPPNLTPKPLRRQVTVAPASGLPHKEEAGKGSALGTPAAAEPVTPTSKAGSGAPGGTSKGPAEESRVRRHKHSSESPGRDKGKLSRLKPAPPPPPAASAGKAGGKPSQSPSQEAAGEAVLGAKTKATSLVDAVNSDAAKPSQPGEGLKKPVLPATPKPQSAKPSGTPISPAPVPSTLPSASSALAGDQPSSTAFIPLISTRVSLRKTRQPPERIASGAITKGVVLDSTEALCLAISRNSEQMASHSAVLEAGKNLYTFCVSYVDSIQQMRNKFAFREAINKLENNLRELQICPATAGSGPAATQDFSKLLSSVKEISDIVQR
Description: as §1
as §2, with “Abl” for “CDK2/cyclinE”, “50 μM EAIYAAPFAKKK (SEQ ID NO:206),” for “0.1 mg/ml histone H1,”

[5] = molecular target: Snk(h) (Homo sapiens, UniProt Q9NYY3); settings: read-out: percent residual activity of Snk(h)
Snk(h), sequence (Q9NYY3 whole entry): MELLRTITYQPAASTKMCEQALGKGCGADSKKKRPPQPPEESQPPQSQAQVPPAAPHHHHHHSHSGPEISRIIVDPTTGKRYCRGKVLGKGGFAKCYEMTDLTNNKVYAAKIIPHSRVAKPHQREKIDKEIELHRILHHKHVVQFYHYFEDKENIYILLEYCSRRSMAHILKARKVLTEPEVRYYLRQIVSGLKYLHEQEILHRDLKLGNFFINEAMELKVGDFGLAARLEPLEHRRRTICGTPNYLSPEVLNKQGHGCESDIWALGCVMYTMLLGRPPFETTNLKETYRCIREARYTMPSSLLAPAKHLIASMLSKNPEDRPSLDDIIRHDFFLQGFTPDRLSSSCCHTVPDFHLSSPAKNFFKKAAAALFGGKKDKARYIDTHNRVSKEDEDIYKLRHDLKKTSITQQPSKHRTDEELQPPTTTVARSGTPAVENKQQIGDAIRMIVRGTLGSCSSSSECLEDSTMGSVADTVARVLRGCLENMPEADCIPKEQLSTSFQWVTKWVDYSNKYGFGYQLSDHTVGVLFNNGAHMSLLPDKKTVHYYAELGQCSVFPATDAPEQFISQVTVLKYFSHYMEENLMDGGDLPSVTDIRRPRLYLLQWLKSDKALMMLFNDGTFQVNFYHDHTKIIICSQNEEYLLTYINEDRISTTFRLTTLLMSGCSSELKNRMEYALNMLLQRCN
Description: as §1
as §2, with “Snk” for “CDK2/cyclinE”, “2” for “0.1”, “casein,” for “histone H1,”

[6] = molecular target: PAR-1Bα(h) (Homo sapiens, UniProt Q7KZI7); settings: read-out: percent residual activity of PAR-1Bα(h)
PAR-1Bα(h), sequence (Q7KZI7 1-725 isoform Q7KZI7-4): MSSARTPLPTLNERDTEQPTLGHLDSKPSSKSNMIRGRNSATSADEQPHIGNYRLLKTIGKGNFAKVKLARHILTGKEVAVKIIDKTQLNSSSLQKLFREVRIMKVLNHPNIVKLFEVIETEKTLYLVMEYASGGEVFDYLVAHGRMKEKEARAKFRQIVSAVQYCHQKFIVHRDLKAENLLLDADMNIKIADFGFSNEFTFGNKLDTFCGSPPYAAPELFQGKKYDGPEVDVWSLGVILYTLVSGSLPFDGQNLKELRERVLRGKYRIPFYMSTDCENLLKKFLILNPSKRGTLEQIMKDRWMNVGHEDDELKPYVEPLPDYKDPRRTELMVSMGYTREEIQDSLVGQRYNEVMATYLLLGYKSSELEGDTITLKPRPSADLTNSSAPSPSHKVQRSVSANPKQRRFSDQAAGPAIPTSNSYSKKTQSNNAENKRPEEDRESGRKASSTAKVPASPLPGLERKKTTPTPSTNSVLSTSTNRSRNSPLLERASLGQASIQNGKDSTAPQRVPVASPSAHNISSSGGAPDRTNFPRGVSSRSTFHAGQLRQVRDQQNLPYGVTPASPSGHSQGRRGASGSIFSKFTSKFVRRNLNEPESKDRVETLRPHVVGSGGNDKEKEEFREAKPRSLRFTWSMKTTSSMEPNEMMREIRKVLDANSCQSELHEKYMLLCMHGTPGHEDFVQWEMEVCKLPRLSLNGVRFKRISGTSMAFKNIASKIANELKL
Description: as §1
as §2, with “μl, PAR-1Bα” for “μl, CDK2/cyclinE”, “EDTA, 100 μM […] (SEQ ID NO:213),” for “EDTA, 0.1 mg/ml histone H1,”, “10 pi” for “10 μl”

[7] = 45 micromolar ATP, single replicates
[8] = 45 micromolar ATP, n = 2, read-out: Mean Activity (% Control)
[9] = 45 micromolar ATP, single replicates, read-out: Activity (% Control)
[10] = read-out: percent residual activity of Abl(h)

remaining activity at 2.5 µM [1] [%]	remaining activity at 2.5 µM [2] [%]	remaining activity at 2.5 µM [3] [%]	Mean (Counts - Blanks) ([4]; 45 micromolar ATP)	Activity (% Control) [4, 7] [% Control]	Counts [4, 7]	remaining activity at 2.5 µM [4, 8] [%]	remaining activity at 2.5 µM [4, 9] [%]	remaining activity at 2.5 µM [4, 10] [%]	remaining activity at 2.5 µM [5] [%]	remaining activity at 2.5 µM [6] [%]	SMILES
117	105	97	47944	98	51051 and 49659	100	101	100	125	100	CC(=O)N1CCN(c2ccc3c(=O)c(C(=O)NCCN4CCCC4)c4n(C)c5ccccc5n4c3n2)CC1 [Compound B-1]
102	95	69	12522	25	15236 and 14630	26	27	26	125	88	CN1CCCC1CCNC(=O)c1cn2c3c(c(N4CCC(c5cnccn5)C4)c(F)cc3c1=O)Oc1cc3ccccc3cc1-2 (stereo not shown) [Compound A-1]
